Assay results taken from PubChem BioAssay (NCI).
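The compound was tested at five concentrations on cells cultured in 96-well plates, with a 48-hour exposure period. At the GI50, growth is halved. TGI: total growth inhibition.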 Where a SMILES comes first, the peptide text is derived from it. The star is where a group is joined. Cbz = O=C(OCc1ccccc1)*; CH2Cl = ClC*

Legend:
Assay in all cases: NCI-60 cell line screen, 48 h
RPMI-8226 leukemia = test system: RPMI-8226 leukemia
HCC-2998 colon = test system: HCC-2998 colon
EKVX NSCLC = test system: EKVX NSCLC
SR leukemia = test system: SR leukemia
HOP-92 NSCLC = test system: HOP-92 NSCLC
HOP-62 NSCLC = test system: HOP-62 NSCLC
SK-MEL-2 melanoma = test system: SK-MEL-2 melanoma
OVCAR-4 ovarian = test system: OVCAR-4 ovarian
HT29 colon = test system: HT29 colon
ACHN renal = test system: ACHN renal

Row | SMILES | TGI (RPMI-8226 leukemia) [µM] | TGI (HCC-2998 colon) [µM] | TGI (EKVX NSCLC) [µM] | TGI (SR leukemia) [µM] | TGI (HOP-92 NSCLC) [µM] | TGI (HOP-62 NSCLC) [µM] | TGI (SK-MEL-2 melanoma) [µM] | TGI (OVCAR-4 ovarian) [µM] | TGI (HT29 colon) [µM] | TGI (ACHN renal) [µM] | GI50 (RPMI-8226 leukemia) [µM] | GI50 (HCC-2998 colon) [µM] | GI50 (EKVX NSCLC) [µM] | GI50 (SR leukemia) [µM] | GI50 (HOP-92 NSCLC) [µM] | GI50 (HOP-62 NSCLC) [µM] | GI50 (SK-MEL-2 melanoma) [µM] | GI50 (OVCAR-4 ovarian) [µM] | GI50 (HT29 colon) [µM] | GI50 (ACHN renal) [µM]
1 | O=C1/C(=C/c2ccc(Cl)cc2)CCC1CCN1CCOCC1 (stereo not given) | 64.4 | > 100 | > 100 | > 100 | > 100 | > 100 | > 100 | > 100 | > 100 | > 100 | – | – | – | – | – | – | – | – | – | –
2 | CCOc1ccc(NC(=O)C(=O)CC(=O)c2c(C)n([O-])c3ccccc3[n+]2=O)cc1 | > 100 | > 100 | > 100 | > 100 | > 100 | > 100 | > 100 | > 100 | > 100 | > 100 | – | – | – | – | – | – | – | – | – | –
3 | COc1cc(Cn2c(-c3ccccc3)c(Cl)c3c2-c2oncc2CC3)cc(OC)c1 | > 100 | > 100 | > 100 | 15.5 | > 100 | > 100 | > 100 | 79.8 | > 100 | > 100 | 7.11 | 9.97 | 4.97 | 2.92 | 50 | 44 | 10.6 | 6.57 | 3.71 | 9.31
4 | CC(C)CC(NC(=O)OCc1ccccc1)C(=O)NC(Cc1ccccc1)C(=O)CCl (stereo not drawn) (Cbz-Leu-Phe-CH2Cl; configuration not given here) | 5.15 | 26.1 | 34.5 | 4.66 | 3.73 | 30.5 | 7.37 | 4.69 | 7.54 | 11.3 | – | – | – | – | – | – | – | – | – | –
5 | COc1cc2c(cc1OCCCNC(=O)c1cccc3c(=O)c4ccccc4[nH]c13)N=C[C@@H]1CCCN1C2=O | – | 0.0321 | 0.14 | > 45.4 | 49.6 | 0.399 | 4.82 | 10.8 | > 56.3 | > 100 | – | < 0.0103 | 0.0166 | – | < 0.01 | < 0.01 | 2.37 | < 0.01 | – | 0.0197
6 | Cn1cc(C2=C(c3cn(CCCCO)c4ccccc34)C(=O)NC2=O)c2ccccc21 | > 25 | > 25 | – | 21.4 | > 25 | > 25 | 21.6 | > 25 | > 25 | > 23.4 | 9.23 | 16.3 | – | 6.05 | 17.1 | 9.95 | 7.65 | 13.9 | 8.3 | 6.38
7 | COC1(OC)C(N(C)C)=C(Cl)C(=O)/C1=C/C=O | > 100 | > 100 | – | > 100 | > 100 | > 100 | – | > 100 | > 100 | > 100 | – | – | – | – | – | – | – | – | – | –
8 | Cn1cc(NC(=O)Nc2cc(C(=O)Nc3cc(C(=O)Nc4ccc(S(=O)(=O)O)c5cc(S(=O)(=O)O)ccc45)n(C)c3)n(C)c2)cc1C(=O)Nc1cc(C(=O)Nc2ccc(S(=O)(=O)O)c3cc(S(=O)(=O)O)ccc23)n(C)c1 | > 100 | > 100 | > 100 | > 100 | > 100 | > 100 | – | > 100 | > 100 | > 100 | – | – | – | – | – | – | – | – | – | –
9 | CCCN1C(=O)N(CCC)C2C1NC(=S)N2/N=C/C=C/c1ccccc1OC (stereo not given) | 16.7 | 65.1 | > 100 | > 35.1 | > 100 | > 100 | > 63.4 | > 100 | 17.8 | 81.1 | 0.69 | 2.36 | 2.22 | 0.326 | 0.624 | 0.713 | 2.08 | 1.95 | 0.386 | 0.631
10 | Clc1ccc2[nH]cc(-c3nnnn3-c3ccccc3)c2c1 | 43.3 | 20.1 | > 100 | > 38.9 | > 100 | > 100 | > 100 | > 100 | > 70.9 | > 100 | 14.5 | 5.32 | 28.3 | 4.4 | 27.5 | 28 | > 64.9 | > 43.8 | 11.9 | 24.9
11 | CCOC(=O)C(Cc1ccc(CCCC(=O)NCCC(=O)Nc2ccc3nc(C)sc3c2)cc1)C(=O)OCC | 53.4 | > 100 | > 100 | > 100 | > 100 | > 100 | > 62 | > 100 | > 100 | 34.3 | 21.1 | 60.4 | 53.7 | 50.8 | 55.6 | > 83.3 | 33 | 38.1 | > 64.2 | 18.2
12 | N#CC(C(=O)C(=O)C(C#N)c1ccc(Br)cc1)c1ccc(Br)cc1 (stereo not given) | > 100 | 24.5 | 24.6 | > 100 | 26.4 | 27.2 | 27.5 | 24.9 | 22.8 | 25.1 | – | – | – | – | – | – | – | – | – | –
13 | CCC(C)COC(=O)c1ccc(N=Cc2ccc(C=Nc3ccc(C(=O)OCC(C)CC)cc3)cc2)cc1 (stereo not given) | > 100 | > 100 | > 100 | > 100 | > 100 | > 100 | > 100 | > 100 | > 100 | > 100 | – | – | – | – | – | – | – | – | – | –
14 | O=C(O)Cc1cc(Cl)ccc1O | > 100 | > 100 | > 100 | > 100 | > 100 | > 100 | > 100 | > 100 | > 100 | > 100 | – | – | – | – | – | – | – | – | – | –
15 | CC[C@H]1[C@@H]2C=C[C@@H]3[C@H]4C/C=C\C(=O)NCCC[C@@H]5NC(=O)/C(=C(O)/C=C/[C@@H]4C[C@@H]3[C@H]2C[C@H]1C)C5=O | 4.23 | 3.62 | 3.31 | 1.94 | 2.82 | 3.03 | 6.01 | 2.16 | 3.31 | 1.57 | 1.77 | 1.8 | 1.45 | 0.264 | 1.41 | 1.4 | 2.54 | 0.664 | 1.73 | 0.42
16 | CCOC(=O)Nc1ccc(C)c(NC(=O)OCC)c1 | > 100 | > 100 | > 100 | > 100 | > 100 | > 100 | > 100 | – | > 100 | > 100 | – | – | – | – | – | – | – | – | – | –
